Data published in patent US9326506B2, “Preparation method, agricultural composition and applications of natural brassinolide analogs” (CHENGDU NEWSUN CROPSCIENCE CO., LTD, priority 2012, dated 2016).

Key:
rice seed = test: Salt tolerance assay: germination of rice seed under high salt environment; type: in vivo
Text: According to a salt tolerance assay, we measured germination of rice seed under high salt environment to determine effects of the natural brassinolide analogues on the salt tolerance of a plant.
The natural brassinolide analogues, BR1, BR2, BR3, BR4, BR5 and BR6, used herein, were those prepared by the method of Example 1. And BR1, BR2, BR3, BR4, BR5 and BR6 were mixed into a mixture of brassinolide analogues (referred to as “BRs”, in which the weight ratio of BR1:BR2:BR3:BR4:BR5:BR6 is 0.4:0.4:0.4:0.4:0.4:98). Respectively the analogues and the mixture were dissolved into 95% (V/V) ethanol solution, and then diluted with pure water to 1 mg/L, 0.1 mg/L, 0.01 mg/L, 0.001 mg/L and 0.0001 mg/L. In addition, pure water was used as a control. Furthermore, NaCl was added to the above solutions containing different concentrations of the natural brassinolide analogues or pure water respectively, and the concentrations of the salt are 300, 400, 500 and 600 mg/L respectively.
After rice seeds were disinfected by using 5% sodium hypochlorite solution treatment, they were rinsed with distilled water until their pH>7, placed into a petri dish in a dark incubator, and cultured at 30° C.±2° C. by using the above solutions containing different concentrations of the natural brassinolide analogues or pure water for observing the germination and calculating germination rates. The results are shown in tables 4-0˜4-4, which indicate that relative to the control, each of the natural brassinolide analogues and the mixture were capable of increasing germination rates of rice under high salt environment so as to enhance the salt tolerance of a plant; and substantially the enhancement of the germination rates was positively correlated to the concentrations of the natural brassinolide analogues and the mixture.

rice = test: Rice leaf bending assay (leaf inclination angle); type: in vivo; details: for Average angle / Total angle: 48 hr; for Total angle: sum of 20 rice; for Effects on leaf inclination compared among analogues: in the case of high concentrations
Text: According to a rice leaf bending assay, we measured leaf inclination angle of rice to determine effects of the natural brassinolide analogues on the enhancement of plant development. The larger the leaf inclination angle of rice, the more effects on plant development. The detailed assay procedure is as follows:
The natural brassinolide analogues, BR1, BR2, BR3, BR4, BR5 and BR6, used herein, were those prepared by the method of Example 1. And BR1, BR2, BR3, BR4, BR5 and BR6 were mixed into a mixture of brassinolide analogues (referred to as “BRs”, in which the weight ratio of BR1:BR2:BR3:BR4:BR5:BR6 is 0.4:0.4:0.4:0.4:0.4:98). Respectively the analogues and the mixture were dissolved into 95% (V/V) ethanol solution, and then diluted with pure water to 1 mg/L, 0.1 mg/L, 0.01 mg/L, 0.001 mg/L and 0.0001 mg/L. In addition, pure water was used as a control.
After rice seeds were disinfected by using 5% sodium hypochlorite solution treatment, they were rinsed with distilled water until their pH>7, placed into a petri dish in a dark incubator, and cultured by using water at 30° C.±2° C. for 9 days. Then the nine-day-old etiolated seedlings of rice were cut around the center of the base of second leaf to segments with 1 cm leaf and 1 cm leaf sheath. The leaf segments were floated in distilled water, placed in a dark incubator, cultured at 30° C.±2° C. for 24 hr, and then dried by a filter paper. The dried leaf segments were respectively immersed in the above solutions containing different concentrations of the natural brassinolide analogues or pure water, and cultured in a dark incubator at 30° C.±2° C. for 48 hr. Every solution or pure water contained the leaf segments from 20 rice. Then the inclination angle between the second leaf and the leaf sheath of the leaf segments was measured by a protractor.

[1] = rice seed, sample 0.0001 mg/l, salt (NaCl) 300 mg/l
[2] = rice seed, sample 0.0001 mg/l, salt (NaCl) 400 mg/l
[3] = rice seed, sample 0.0001 mg/l, salt (NaCl) 500 mg/l
[4] = rice seed, sample 0.0001 mg/l, salt (NaCl) 600 mg/l
[5] = rice seed, sample 0.001 mg/l, salt (NaCl) 300 mg/l
[6] = rice seed, sample 0.001 mg/l, salt (NaCl) 400 mg/l
[7] = rice seed, sample 0.001 mg/l, salt (NaCl) 500 mg/l
[8] = rice seed, sample 0.001 mg/l, salt (NaCl) 600 mg/l
[9] = rice seed, sample 0.01 mg/l, salt (NaCl) 300 mg/l
[10] = rice seed, sample 0.01 mg/l, salt (NaCl) 400 mg/l
[11] = rice seed, sample 0.01 mg/l, salt (NaCl) 500 mg/l
[12] = rice seed, sample 0.01 mg/l, salt (NaCl) 600 mg/l
[13] = rice seed, sample 0.1 mg/l, salt (NaCl) 300 mg/l
[14] = rice seed, sample 0.1 mg/l, salt (NaCl) 400 mg/l
[15] = rice seed, sample 0.1 mg/l, salt (NaCl) 500 mg/l
[16] = rice seed, sample 0.1 mg/l, salt (NaCl) 600 mg/l
[17] = rice seed, sample 1 mg/l, salt (NaCl) 300 mg/l
[18] = rice seed, sample 1 mg/l, salt (NaCl) 400 mg/l
[19] = rice seed, sample 1 mg/l, salt (NaCl) 500 mg/l
[20] = rice seed, sample 1 mg/l, salt (NaCl) 600 mg/l
[21] = sample 0.0001 mg/l, salt 300 mg/l
[22] = sample 0.0001 mg/l, salt 400 mg/l
[23] = sample 0.0001 mg/l, salt 500 mg/l
[24] = sample 0.0001 mg/l, salt 600 mg/l
[25] = sample 0.001 mg/l, salt 300 mg/l
[26] = sample 0.001 mg/l, salt 400 mg/l
[27] = sample 0.001 mg/l, salt 500 mg/l
[28] = sample 0.001 mg/l, salt 600 mg/l
[29] = sample 0.01 mg/l, salt 300 mg/l
[30] = sample 0.01 mg/l, salt 400 mg/l
[31] = sample 0.01 mg/l, salt 500 mg/l
[32] = sample 0.01 mg/l, salt 600 mg/l

CC(C)C[C@@H](O)[C@H](O)[C@@H](C)[C@H]1CCC2C3CC(=O)C4C[C@H](O)[C@H](O)C[C@]4(C)C3CC[C@@]21C (some centres unmarked) [BR5]
Germination rate (rice seed; [1]): 50% | Germination rate (rice seed; [2]): 48% | Germination rate (rice seed; [3]): 42% | Germination rate (rice seed; [4]): 36% | Germination rate (rice seed; [5]): 52% | Germination rate (rice seed; [6]): 49% | Germination rate (rice seed; [7]): 45% | Germination rate (rice seed; [8]): 38% | Germination rate (rice seed; [9]): 56% | Germination rate (rice seed; [10]): 51% | Germination rate (rice seed; [11]): 47% | Germination rate (rice seed; [12]): 39% | Germination rate (rice seed; [13]): 58% | Germination rate (rice seed; [14]): 52% | Germination rate (rice seed; [15]): 43% | Germination rate (rice seed; [16]): 40% | Germination rate (rice seed; [17]): 62% | Germination rate (rice seed; [18]): 55% | Germination rate (rice seed; [19]): 50% | Germination rate (rice seed; [20]): 42% | Average angle (rice; 0.0001 mg/l): 3.9 degree | Total angle (rice; 0.0001 mg/l): 78 degree | Average angle (rice; 0.001 mg/l): 9.3 degree | Total angle (rice; 0.001 mg/l): 186 degree | Average angle (rice; 0.01 mg/l): 20.05 degree | Total angle (rice; 0.01 mg/l): 401 degree | Average angle (rice; 0.1 mg/l): 35 degree | Total angle (rice; 0.1 mg/l): 700 degree | Average angle (rice; 1 mg/l): 110 degree | Total angle (rice; 1 mg/l): 2200 degree | Effects on leaf inclination compared among analogues (rice): more than those of BR2, BR3 and BR4

C=C(C(C)C)[C@@H](O)[C@H](O)[C@@H](C)[C@H]1CCC2C3COC(=O)C4C[C@H](O)[C@H](O)C[C@]4(C)C3CC[C@@]21C (some centres unmarked) [BR3]
Germination rate (rice seed; [21]): 50% | Germination rate (rice seed; [22]): 45% | Germination rate (rice seed; [23]): 39% | Germination rate (rice seed; [24]): 32% | Germination rate (rice seed; [25]): 50% | Germination rate (rice seed; [26]): 43% | Germination rate (rice seed; [27]): 40% | Germination rate (rice seed; [28]): 33% | Germination rate (rice seed; [29]): 51% | Germination rate (rice seed; [30]): 50% | Germination rate (rice seed; [31]): 47% | Germination rate (rice seed; [32]): 39% | Germination rate (rice seed; sample 0.1 mg/l, salt 300 mg/l): 50% | Germination rate (rice seed; sample 0.1 mg/l, salt 400 mg/l): 50% | Germination rate (rice seed; sample 0.1 mg/l, salt 500 mg/l): 41% | Germination rate (rice seed; sample 0.1 mg/l, salt 600 mg/l): 38% | Germination rate (rice seed; sample 1 mg/l, salt 300 mg/l): 52% | Germination rate (rice seed; sample 1 mg/l, salt 400 mg/l): 46% | Germination rate (rice seed; sample 1 mg/l, salt 500 mg/l): 40% | Germination rate (rice seed; sample 1 mg/l, salt 600 mg/l): 38% | Average angle (rice; 0.0001 mg/l): 3.84 degree | Total angle (rice; 0.0001 mg/l): 76.8 degree | Average angle (rice; 0.001 mg/l): 6.8 degree | Total angle (rice; 0.001 mg/l): 136 degree | Average angle (rice; 0.01 mg/l): 12.15 degree | Total angle (rice; 0.01 mg/l): 243 degree | Average angle (rice; 0.1 mg/l): 21 degree | Total angle (rice; 0.1 mg/l): 420 degree | Average angle (rice; 1 mg/l): 65.3 degree | Total angle (rice; 1 mg/l): 1306 degree

CC(C)(O)CC[C@@H](O)[C@](C)(O)[C@H]1CC[C@@]2(O)[C@@H]3CC(=O)[C@@H]4C[C@@H](O)[C@@H](O)C[C@]4(C)[C@H]3CC[C@]12C [BR6]
Germination rate (rice seed; [1]): 52% | Germination rate (rice seed; [2]): 48% | Germination rate (rice seed; [3]): 42% | Germination rate (rice seed; [4]): 36% | Germination rate (rice seed; [5]): 53% | Germination rate (rice seed; [6]): 50% | Germination rate (rice seed; [7]): 44% | Germination rate (rice seed; [8]): 37% | Germination rate (rice seed; [9]): 55% | Germination rate (rice seed; [10]): 51% | Germination rate (rice seed; [11]): 46% | Germination rate (rice seed; [12]): 39% | Germination rate (rice seed; [13]): 58% | Germination rate (rice seed; [14]): 53% | Germination rate (rice seed; [15]): 47% | Germination rate (rice seed; [16]): 42% | Germination rate (rice seed; [17]): 68% | Germination rate (rice seed; [18]): 55% | Germination rate (rice seed; [19]): 52% | Germination rate (rice seed; [20]): 44% | Average angle (rice; 0.0001 mg/l): 4.25 degree | Total angle (rice; 0.0001 mg/l): 85 degree | Average angle (rice; 0.001 mg/l): 7.1 degree | Total angle (rice; 0.001 mg/l): 142 degree | Average angle (rice; 0.01 mg/l): 23 degree | Total angle (rice; 0.01 mg/l): 460 degree | Average angle (rice; 0.1 mg/l): 35.5 degree | Total angle (rice; 0.1 mg/l): 710 degree | Average angle (rice; 1 mg/l): 109 degree | Total angle (rice; 1 mg/l): 2180 degree | Effects on leaf inclination compared among analogues (rice): more than those of BR2, BR3 and BR4

CC[C@@H](C(C)C)[C@@H](O)[C@H](O)[C@@H](C)[C@H]1CCC2C3COC(=O)C4C[C@H](O)[C@H](O)C[C@]4(C)C3CC[C@@]21C (some centres unmarked) [BR2]
Germination rate (rice seed; [21]): 45% | Germination rate (rice seed; [22]): 41% | Germination rate (rice seed; [23]): 39% | Germination rate (rice seed; [24]): 36% | Germination rate (rice seed; [25]): 50% | Germination rate (rice seed; [26]): 42% | Germination rate (rice seed; [27]): 40% | Germination rate (rice seed; [28]): 36% | Germination rate (rice seed; [29]): 50% | Germination rate (rice seed; [30]): 51% | Germination rate (rice seed; [31]): 47% | Germination rate (rice seed; [32]): 39% | Germination rate (rice seed; sample 0.1 mg/l, salt 300 mg/l): 50% | Germination rate (rice seed; sample 0.1 mg/l, salt 400 mg/l): 50% | Germination rate (rice seed; sample 0.1 mg/l, salt 500 mg/l): 46% | Germination rate (rice seed; sample 0.1 mg/l, salt 600 mg/l): 38% | Germination rate (rice seed; sample 1 mg/l, salt 300 mg/l): 58% | Germination rate (rice seed; sample 1 mg/l, salt 400 mg/l): 51% | Germination rate (rice seed; sample 1 mg/l, salt 500 mg/l): 46% | Germination rate (rice seed; sample 1 mg/l, salt 600 mg/l): 38% | Average angle (rice; 0.0001 mg/l): 4.025 degree | Total angle (rice; 0.0001 mg/l): 80.5 degree | Average angle (rice; 0.001 mg/l): 7.28 degree | Total angle (rice; 0.001 mg/l): 145.6 degree | Average angle (rice; 0.01 mg/l): 13.25 degree | Total angle (rice; 0.01 mg/l): 265 degree | Average angle (rice; 0.1 mg/l): 21.15 degree | Total angle (rice; 0.1 mg/l): 423 degree | Average angle (rice; 1 mg/l): 71.25 degree | Total angle (rice; 1 mg/l): 1425 degree
